Test system: PANK2 silenced human neuroblastoma IMR32 cells (PANK2−/−)
Test: Coenzyme A assay in PANK2 silenced cells (LC-MS quantification of free CoA)
Format: cell-based
Conditions: compound added twice (24 h + 24 h), relative to 0.1% DMSO controls
Summary of the method: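 Free intracellular CoA was measured by positive-mode LC-MS/MS of 20% TFA extracts, taking 2 μl per 10^6 cells as intracellular volume. Cells were IMR32 with stable lentiviral PANK2 knockdown, dosed twice 24 h apart (48 h total, 0.1% DMSO). Output is fold increase over vehicle.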

SMILES	PANK2−/− CoA (Fold Increase): fold increase in Coenzyme A (CoA) levels relative to controls [Fold Increase]
COC(=O)CCNC(=O)[C@@H]1OP(=O)(OCOC(=O)NCCOC(=O)C(C)(C)C)OCC1(C)C (stereo partly drawn) [2-183, 2-((((((4R)-4-((3-methoxy-3-oxopropyl)carbamoyl)-5,5-dimethyl-2-oxido-1,3,2-dioxaphosphinan-2-yl)oxy)methoxy)carbonyl)amino)ethyl pivalate]	3.5
COC(=O)CCNC(=O)[C@@H]1O[P@@](=O)(OCOC(=O)c2scnc2C)OCC1(C)C (single isomer, unassigned) [2-149]	24.48
COC(=O)CCNC(=O)[C@@H]1O[P@](=O)(OC(C)OC(=O)C(C)(C)C)OCC1(C)C (stereo partly drawn) [compound 102, 1-(((2R,4R)-4-((3-methoxy-3-oxopropyl)carbamoyl)-5,5-dimethyl-2-oxido-1,3,2-dioxaphosphinan-2-yl)oxy)ethyl pivalate]	2.5
COC(=O)CCNC(=O)[C@@H]1O[P@](=O)(Oc2ccc(C[C@H](N)C(=O)OC)cc2)OCC1(C)C [2-163, Methyl (S)-2-amino-3-(4-(((2R,4R)-4-((3-methoxy-3-oxopropyl)carbamoyl)-5,5-dimethyl-2-oxido-1,3,2-dioxaphosphinan-2-yl)oxy)phenyl)propanoate]	81.21
COC(=O)CCNC(=O)[C@@H]1O[P@@](=O)(Oc2ccc(C[C@H](NC(=O)OC(C)(C)C)C(=O)OC)cc2)OCC1(C)C (single isomer, unassigned) [2-204]	5.75
COC(=O)CCNC(=O)[C@@H]1O[P@](=O)(Oc2ccc(C(F)(F)F)cc2)OCC1(C)C [2-197, methyl 3-((2R,4R)-5,5-dimethyl-2-oxido-2-(4-(trifluoromethyl)phenoxy)-1,3,2-dioxaphosphinane-4-carboxamido)propanoate]	101.95
COC(=O)CCNC(=O)[C@@H]1OP(=O)(OCOC(=O)[C@@H]2COC(=O)N2C(=O)OC(C)(C)C)OCC1(C)C (stereo partly drawn) [2-189, 3-(tert-butyl) 4-((((4R)-4-((3-methoxy-3-oxopropyl)carbamoyl)-5,5-dimethyl-2-oxido-1,3,2-dioxaphosphinan-2-yl)oxy)methyl) (4S)-2-oxooxazolidine-3,4-dicarboxylate]	3.86
COC(=O)CCNC(=O)[C@@H]1O[P@@](=O)(OCOC(=O)c2scnc2C(C)C)OCC1(C)C [2-187, (((2S,4R)-4-((3-methoxy-3-oxopropyl)carbamoyl)-5,5-dimethyl-2-oxido-1,3,2-dioxaphosphinan-2-yl)oxy)methyl 4-isopropylthiazole-5-carboxylate]	112.41
CC(C)(C)OC(=O)CCNC(=O)[C@@H]1OP(=O)(O)OCC1(C)C [Compound No. 2-111, tert-butyl 3-((4R)-2-hydroxy-5,5-dimethyl-2-oxido-1,3,2-dioxaphosphinane-4-carboxamido)propanoate]	1.16
COC(=O)CCNC(=O)[C@@H]1O[P@@](=O)(Oc2ccc(F)cc2)OCC1(C)C [2-178, methyl 3-((2S,4R)-2-(4-fluorophenoxy)-5,5-dimethyl-2-oxido-1,3,2-dioxaphosphinane-4-carboxamido)propanoate]	2.3
CCCC(=O)OCOP1(=O)OCC(C)(C)[C@H](C(=O)NCCC(=O)OC)O1 (stereo partly drawn) [Compound No. 66, (((4R)-4-((3-methoxy-3-oxopropyl)carbamoyl)-5,5-dimethyl-2-oxido-1,3,2-dioxaphosphinan-2-yl)oxy)methyl butyrate]	83.72
COC(=O)CCNC(=O)[C@@H]1O[P@](=O)(Oc2ccc(C#N)cc2)OCC1(C)C [2-165, methyl 3-((2R,4R)-2-(4-cyanophenoxy)-5,5-dimethyl-2-oxido-1,3,2-dioxaphosphinane-4-carboxamido)propanoate]	6.87
COC(=O)CCNC(=O)[C@@H]1O[P@](=O)(OCOC(=O)c2cc(C)nn2C)OCC1(C)C [2-190, (((2R,4R)-4-((3-methoxy-3-oxopropyl)carbamoyl)-5,5-dimethyl-2-oxido-1,3,2-dioxaphosphinan-2-yl)oxy)methyl 1,3-dimethyl-1H-pyrazole-5-carboxylate]	52.24
COC(=O)CCNC(=O)[C@@H]1O[P@@](=O)(N2CCOCC2)OCC1(C)C [compound 136, methyl 3-((2R,4R)-5,5-dimethyl-2-morpholino-2-oxido-1,3,2-dioxaphosphinane-4-carboxamido)propanoate]	1.93
COC(=O)CCNC(=O)[C@@H]1OP(=O)(OCOC(=O)c2ocnc2C)OCC1(C)C (stereo partly drawn) [2-147, (((4R)-4-((3-methoxy-3-oxopropyl)carbamoyl)-5,5-dimethyl-2-oxido-1,3,2-dioxaphosphinan-2-yl)oxy)methyl 4-methyloxazole-5-carboxylate]	39.19
COC(=O)CCNC(=O)[C@@H]1O[P@](=O)(Oc2ccc(S(F)(F)(F)(F)F)cc2)OCC1(C)C (single isomer, unassigned) [Compound No. 2-125]	34.02
CC(C)OC(=O)OCOP1(=O)OCC(C)(C)[C@H](C(=O)NCCC(=O)O)O1 (stereo partly drawn) [Compound No. 104, 3-((4R)-2-(((isopropoxycarbonyl)oxy)methoxy)-5,5-dimethyl-2-oxido-1,3,2-dioxaphosphinane-4-carboxamido)propanoic acid]	75.24
COC(=O)CCNC(=O)[C@@H]1O[P@](=O)(OCOC(=O)NCCSC(=O)[C@@H](N)C(C)C)OCC1(C)C [2-193, methyl 3-((2R,4R)-2-((((2-((L-valyl)thio)ethyl)carbamoyl)oxy)methoxy)-5,5-dimethyl-2-oxido-1,3,2-dioxaphosphinane-4-carboxamido)propanoate]	5.03
COC(=O)CCNC(=O)[C@@H]1OP(=O)(OCOC(=O)N[C@@H](CSC(=O)C(C)(C)C)C(=O)O)OCC1(C)C (stereo partly drawn) [2-180, N-(((((4R)-4-((3-methoxy-3-oxopropyl)carbamoyl)-5,5-dimethyl-2-oxido-1,3,2-dioxaphosphinan-2-yl)oxy)methoxy)carbonyl)-S-pivaloyl-L-cysteine]	26.8
COC(=O)CCNC(=O)[C@@H]1O[P@](=O)(N2CCS(=O)(=O)CC2)OCC1(C)C [compound 138, methyl 3-((2S,4R)-2-(1,1-dioxidothiomorpholino)-5,5-dimethyl-2-oxido-1,3,2-dioxaphosphinane-4-carboxamido) propanoate]	1.7
COC(=O)CCNC(=O)[C@@H]1OP(=O)(OCOC(=O)c2cc(C(C)(C)C)n[nH]2)OCC1(C)C (stereo partly drawn) [2-146, (((4R)-4-((3-methoxy-3-oxopropyl)carbamoyl)-5,5-dimethyl-2-oxido-1,3,2-dioxaphosphinan-2-yl)oxy)methyl 3-(tert-butyl)-1H-pyrazole-5-carboxylate]	84.86
COC(=O)CCNC(=O)[C@@H]1OP(=O)(OCOC(=O)c2ccnn2C)OCC1(C)C (stereo partly drawn) [2-142, (((4R)-4-((3-methoxy-3-oxopropyl)carbamoyl)-5,5-dimethyl-2-oxido-1,3,2-dioxaphosphinan-2-yl)oxy)methyl 1-methyl-1H-pyrazole-5-carboxylate]	58.1
COC(=O)CCNC(=O)[C@@H]1OP(=O)(OCOC(=O)N[C@@H](CSC(=O)C(C)(C)C)C(=O)OC)OCC1(C)C (stereo partly drawn) [2-148, methyl N-(((((4R)-4-((3-methoxy-3-oxopropyl)carbamoyl)-5,5-dimethyl-2-oxido-1,3,2-dioxaphosphinan-2-yl)oxy)methoxy)carbonyl)-S-pivaloyl-L-cysteinate]	4.19
COC(=O)CCNC(=O)[C@@H]1OP(=O)(NCCc2ccccc2)OCC1(C)C (stereo partly drawn) [compound 112, methyl 3-((4R)-5,5-dimethyl-2-oxido-2-(phenethylamino)-1,3,2-dioxaphosphinane-4-carboxamido)propanoate]	1.42
CCN(CC)C(=O)[C@H](Cc1ccccc1)NC(=O)OCOP1(=O)OCC(C)(C)[C@H](C(=O)NCCC(=O)OC)O1 (stereo partly drawn) [2-135, methyl 3-((4R)-2-(((((S)-1-(diethylamino)-1-oxo-3-phenylpropan-2-yl)carbamoyl)oxy)methoxy)-5,5-dimethyl-2-oxido-1,3,2-dioxaphosphinane-4-carboxamido)propanoate]	1.7
COC(=O)CCNC(=O)[C@@H]1O[P@@](=O)(Oc2ccccc2C(=O)OC)OCC1(C)C [2-117, methyl 2-(((2S,4R)-4-((3-methoxy-3-oxopropyl)carbamoyl)-5,5-dimethyl-2-oxido-1,3,2-dioxaphosphinan-2-yl)oxy)benzoate]	1.11
COC(=O)CCNC(=O)[C@@H]1OP(=O)(N2CCCCC2)OCC1(C)C (stereo in doubt) [compound 133, methyl 3-((2R,4R)-5,5-dimethyl-2-oxido-2-(piperidin-1-yl)-1,3,2-dioxaphosphinane-4-carboxamido)propanoate]	1.45

Reference: US10364263B2, “Cyclic phosphates and cyclic phosphoramidates for the treatment of neurologic disorders” (Retrophin, Inc., priority 2015, dated 2019)
